Experimental data from patent US7060733B2, “Methods for treating pancreatitis with curcumin compounds and inhibitors of reactive oxygen species” (The Regents of the University of California, priority 2002, dated 2006).
“Also recorded” adds a separate entry of the source.

What was measured:
NF-κB [1] = experiment: Curcumin and N-acetylcysteine alone and in combination, NF-κB activation in CCK-stimulated acinar cells; format: cell-based, rat; settings: curcumin 50 μM alone, 0.1 μM CCK
Procedure: To measure the effects of curcumin compounds and ROS inhibitors, EMSAs and nuclear protein extractions were conducted as provided above. […] EMSAs for NF-κB activation were performed on nuclear proteins extracted from each sample.

IκBα and IκBβ = experiment: Western blot of IκBα and IκBβ in cytosolic extracts from pancreatic tissue; format: in vivo, rat
Procedure: IκBα and IκBβ levels were measured in cytosolic protein extracts from pancreatic tissue, prepared according to Example 12, by Western blot analysis using polyclonal antibodies sc-371 and sc-945, respectively (Santa Cruz Biotechnology, Santa Cruz, Calif.) using methods known in the art. […] Specifically, IκBα and IκBβ levels were measured in cytosolic protein extracts from pancreatic tissue by Western blot analysis using polyclonal antibodies sc-371 and sc-945, respectively (Santa Cruz Biotechnology, Santa Cruz, Calif.). […] Specifically, proteins in the cytosolic extract were separated by SDS-PAGE at 120 V using precast Tris-glycine gels and Mini-Cell gel apparatus (Novex, San Diego, Calif.). Separated proteins were electrophoretically transferred to polyvinylidene difluoride membrane for 2 hours at 30 V, using a Novex blot module. Nonspecific binding was blocked by overnight incubation of the membrane in 5% (wt/vol) nonfat dry milk in Tris-buffered saline (TBS, pH 7.5). Blots were then incubated for 2 hours at room temperature with primary antibodies in antibody buffer containing 1% (wt/vol) nonfat dry milk in TTBS (0.05% vol/vol Tween 20 in TBS), washed three times with TTBS, and finally incubated for 1 hour with a peroxidase-labeled secondary antibody in the antibody buffer. Blots were developed for visualization using enhanced chemiluminescence detection kit (Pierce Chemical, Rockford, Ill.).

[2] = Solubility of curcumin compounds; format: physicochemical; settings: dissolved in DMSO, veins of the rat
CCK receptor = target: T1, CCK receptor (Rattus norvegicus, UniProt P30551); experiment: In vivo pancreatic secretion assay
T1 construct: from tissue; host or cells: living rat, pancreas (acinar cells)
T1 sequence (P30551 1-444): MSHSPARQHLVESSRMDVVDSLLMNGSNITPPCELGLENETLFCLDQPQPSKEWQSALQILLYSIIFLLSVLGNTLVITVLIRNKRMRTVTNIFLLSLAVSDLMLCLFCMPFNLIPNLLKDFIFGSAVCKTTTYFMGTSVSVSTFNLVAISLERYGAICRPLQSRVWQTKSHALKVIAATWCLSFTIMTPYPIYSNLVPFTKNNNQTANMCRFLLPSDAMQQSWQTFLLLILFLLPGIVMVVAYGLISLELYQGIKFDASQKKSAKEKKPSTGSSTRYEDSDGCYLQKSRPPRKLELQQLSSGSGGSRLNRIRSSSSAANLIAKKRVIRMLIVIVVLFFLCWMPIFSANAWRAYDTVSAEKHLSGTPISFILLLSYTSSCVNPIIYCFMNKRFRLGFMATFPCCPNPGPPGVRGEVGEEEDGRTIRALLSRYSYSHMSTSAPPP
Procedure: To rule out the possibility that the effect of curcumin was through inhibition of the action of cerulein or CCK-8 on CCK receptor activation, the effect of pancreatic secretion was tested.
Pancreatic secretion in test rats was measured in vivo by methods known in the art. See Gukovskaya A S, et al. (2002). Briefly, biliopancreatic secretion was allowed to drain freely for 30 minutes before initiation of the experiment. Then secretion was collected in tubes in 10-minute fractions to determine the basal amylase output, after which 0.25 μg/kg cerulein was given as an i.v. bolus and collection continued for 40 minutes in a similar manner. Collection volumes were measured by weigh, and the amylase output was calculated by determining amylase concentration in the collected fractions. The mean amylase output obtained from two consecutive 10-minute fractions after the stabilization period was taken as the basal secretion and considered as 100%. The results were expressed as percentage increase over basal amylase output 40 minutes after cerulein or vehicle infusion.

AP-1 = experiment: EMSA for AP-1 on nuclear extracts from pancreatic tissue; format: in vivo; settings: rat
Procedure: Specifically, aliquots of nuclear extracts with equal amounts of protein (about 2 to about 10 mg) were mixed in 20 μl reactions with a buffer containing 10 mM HEPES (pH 7.8), 50 mM KCl, 0.1 mM EDTA, 1 mM DTT, 10% (vol/vol) glycerol, and 3 μg of poly(dI-dC). Binding reactions were started by the addition of c. 60,000 cpm of ^32P-labeled DNA probe and allowed to proceed for about 20 to about 25 minutes at room temperature. The oligonucleotide probe for NF-κB:
5′-[sequence] (SEQ ID NO: 2), containing phorbol ester responsive element (TRE, underlined), were annealed with their complementary strands and end-labeled using Klenow DNA polymerase I (Stratagene, La Jolla, Calif.).
(§1) The samples were electrophoresed at room temperature in 0.5×TBE buffer (1× TBE: 89 mM Tris base, 89 mM boric acid, 2 mM EDTA) on a non-denaturing 4.5% polyacrylamide gel at 200 V. The gels were dried and directly analyzed in the PhosphorImager (Molecular Dynamics, Sunnyvale, Calif.).
(§2) Nuclear protein extracts were prepared by methods known in the art. […] Briefly, samples of pancreatic tissue or isolated acini were rinsed in ice-cold PBS and homogenized in hypotonic Buffer A (20 mM β-glycerophosphate, 10 mM HEPES, pH 7.6, 1.5 mM MgCl2, 10 mM KCl, 10 mM Na2MoO4, 0.1 mM Na3VO4, 1 mM dithiothreitol (DTT), 1 mM phenylmethylsulfonyl fluoride (PMSF), 5 μg/ml each of protease inhibitors pepstatin, leupeptin, chymostatin, antipain and aprotinin). After incubating on ice for about 20 to about 25 minutes, the nonionic detergent Igepal CA-630 (Sigma, St. Louis, Mo.) was added to a final concentration of 0.3 to 0.4% (v/v), followed by an additional incubation on ice for about 1 to about 2 minutes. The crude nuclear pellet was collected by microcentrifugation for 30 seconds. The supernatant (cytosolic protein) was removed, and the nuclear pellet was resuspended in the high-salt buffer C (25% glycerol, 20 mM β-glycerophosphate, 10 mM HEPES, 1.5 mM MgCl2, 420 mM NaCl, 0.2 mM EDTA, 10 mM Na2MoO4, 0.1 mM Na3VO4, 1 mM DTT, 1 mM PMSF, 5 μg/ml each of protease inhibitors pepstatin, leupeptin, chymostatin, antipain and aprotinin. After rotating at 4° C. for up to 1 hour, nuclear membranes were pelleted by microcentrifugation for 10 minutes, and the clear supernatant (nuclear extract) was aliquoted and stored at −80° C. Protein concentration in the nuclear extract was determined by the Bio-Rad protein assay (Bio-Rad Laboratories, Hercules, Calif.).

[3] = tested on: rats with cerulein pancreatitis or ethanol/CCK pancreatitis; experiment: Serum amylase and lipase in cerulein and ethanol/CCK pancreatitis models; format: in vivo; settings: rat; for inhibition of the increase in serum amylase and lipase: curcumin 35 mg/kg/h i.v. for 6 h
Procedure: 5 μg/kg/h of Cerulein (American Peptide Co., Sunnyvale, Calif.) or vehicle control was administered to male Sprague-Dawley rats (275-350 g; Harlan, Madison, Wis.) by continuous 6-hour intravenous infusion by conventional methods known in the art. See Gukovskaya A S, et al. (1997) J. Clin. Invest. 100:1853-1862; Gukovsky I, et al. (1998) Am. J. Physiol. 275:[…]-[…]; and Zaninovic V, et al. (2000) Am. J. Physiol. 279:[…]-[…], which are herein incorporated by reference. Animals were euthanized by CO2-induced asphyxiation, and blood and the pancreas were harvested for measurements. Curcumin (Sigma Chemical, St. Louis, Mo.) was dissolved in dimethyl sulfoxide (DMSO) and administered to each animal by i.v. infusion together with cerulein at a dose of 35 mg/kg/h. Thus, during the 6-hour treatment, each animal received a total of 200 mg/kg (0.5 mmol/kg) of curcumin. Serum amylase and lipase were measured under contract using a Hitachi 707 analyzer (Antech Diagnostics, Irvine Calif.) and methods known in the art. […] Thus, curcumin inhibits […] pancreatitis. An ethanol/CCK-induced pancreatitis model as previously described was used. See Pandol S J, et al. (1999). Specifically, Sprague-Dawley rats (400-500 g; Harlan, Madison, Wis.) were given an intragastric infusion of ethanol-containing or control diet for 6 weeks followed by 6-hour infusion of a low dose (3000 pmol/kg/h) CCK-8 (Peninsula Laboratories, Belmont, Calif.). […] CCK-8 causes pancreatitis in both rats and mice by stimulating the activation of the inflammatory signals, i.e. NF-κB and AP-1, in the pancreatic acinar cell. Animals were euthanized by CO2-induced asphyxiation, and blood and the pancreas were harvested for measurements. Curcumin (Sigma Chemical, St. Louis, Mo.) was dissolved in dimethyl sulfoxide (DMSO) and administered to each animal by i.v. infusion together with CCK-8 at a dose of 35 mg/kg/h. Thus, during the 6-hour treatment, each animal received a total of 200 mg/kg (c. 0.5 mmol/kg) of curcumin. Serum amylase and lipase were measured under contract using a Hitachi 707 analyzer (Antech Diagnostics, Irvine Calif.) and methods known in the art. […] Thus, curcumin inhibits […] pancreatitis.

pancreatic acinar cells = experiment: LDH release from pancreatic acinar cells; format: cell-based, rat; settings: 100 μM curcumin, control acinar cells or cells stimulated with 100 nM CCK-8
NF-κB [4] = experiment: EMSA for NF-κB on nuclear extracts from pancreatic tissue; format: in vivo, rat; settings: for NF-κB activation in the pancreas: rat
Procedure: Specifically, aliquots of nuclear extracts with equal amounts of protein (about 2 to about 10 mg) were mixed in 20 μl reactions with a buffer containing 10 mM HEPES (pH 7.8), 50 mM KCl, 0.1 mM EDTA, 1 mM DTT, 10% (vol/vol) glycerol, and 3 μg of poly(dI-dC).
as §1, §2

caspase-3 = experiment: Caspase-3-like (DEVDase) activity in pancreatic tissue lysates; format: in vivo, rat; settings: for Caspase-3-like (DEVDase) activity versus pancreatitis without curcumin: p<0.05; for augmentation of the increase in DEVDase activity: rat pancreas
Procedure: […] activity was measured by methods known in the art. See Gukovskaya A S, et al. (2002). Briefly, samples of pancreatic tissue were rinsed with ice-cold PBS and homogenized in a lysis buffer comprising 150 mM NaCl, 50 mM Tris-HCL (pH 7.5), 0.5% Igepal CA-630 (Sigma, St. Louis, Mo.), and 0.5 mM EDTA. Lysates were centrifuged for 10 minutes at 16,000× g and the supernatants were collected. Caspase activity was determined at 37° C. in a buffer comprising 25 mM HEPES (pH 7.5), 10% sucrose, 0.1% CHAPS, 10 mM DTT and […] Ac-DEVD-AMC, a specific fluorogenic substrate for measurement of caspase-3-like activity (AnaSpec, San Jose, Calif.). Cleavage of the substrate releases AMC that emits a fluorescent signal with excitation at 380 nm and emission at 440 nm. Fluorescence was calibrated using a standard curve for AMC. The data were expressed as mol AMC/min/mg protein.

**Q.** What does the source list for `COc1cc(/C=C/C(=O)CC(=O)/C=C/c2ccc(O)c(OC)c2)ccc1O` [curcumin]?
**A.** inhibition of NF-κB activation in CCK-stimulated acinar cells (NF-κB [1]): very little inhibition; decrease (degradation) of IκBα and IκBβ (IκBα and IκBβ; cerulein pancreatitis, rat): prevented; IκBα and IκBβ levels in control animals (IκBα and IκBβ; control animals): did not change; IκB degradation (IκBα and IκBβ; ethanol/CCK pancreatitis, rat): prevented; also recorded: inhibits; behaviour of DMSO solution diluted in saline on intravenous infusion [2]: precipitated; effect on cerulein/CCK-induced pancreatic secretion in vivo (CCK receptor; rat, versus without curcumin): not statistically different; also recorded: did not appear to have an effect; cerulein-induced amylase secretion, of the basal amylase output (CCK receptor; rats treated with curcumin, 0.25 μg/kg cerulein i.v. bolus, 40 min, n=4): 1000±37%; AP-1 activation in the pancreas (AP-1; cerulein pancreatitis): markedly attenuated; also recorded: inhibited; AP-1 activation in the pancreas (AP-1; ethanol/CCK pancreatitis): almost completely blocked; also recorded: inhibited; inhibition of the increase in serum amylase and lipase ([3]; cerulein pancreatitis): approximately 50%; serum amylase versus pancreatitis without curcumin ([3]; cerulein pancreatitis, p<0.05): significantly inhibited; also recorded: significantly lower; serum lipase versus pancreatitis without curcumin ([3]; cerulein pancreatitis, p<0.05): significantly inhibited; also recorded: significantly lower; inhibition of the increase in serum amylase and lipase ([3]; ethanol/CCK pancreatitis): approximately 50%; serum amylase and lipase versus pancreatitis without curcumin ([3]; ethanol/CCK pancreatitis, p<0.05): significantly inhibited; also recorded: significantly lower; LDH release (pancreatic acinar cells): did not cause additional LDH release; NF-κB activation in the pancreas (NF-κB [4]; cerulein pancreatitis): inhibits; also recorded: attenuated; NF-κB activity in the pancreas of control rats (NF-κB [4]; control (vehicle-infused) rats treated with curcumin): Virtually no NF-κB activity was detected; NF-κB activation in the pancreas (NF-κB [4]; ethanol/CCK pancreatitis): inhibits; Caspase-3-like (DEVDase) activity versus pancreatitis without curcumin (caspase-3; EtOH+CCK pancreatitis): significantly higher; augmentation of the increase in DEVDase activity (caspase-3; EtOH+CCK pancreatitis): greater than 2 fold; Caspase-3-like (DEVDase) activity versus pancreatitis without curcumin (caspase-3; cerulein pancreatitis): significantly higher; augmentation of the increase in DEVDase activity (caspase-3; cerulein pancreatitis): greater than 2 fold
